Data from patent US11786132B2, “Systems and methods for predicting arousal to consciousness during general anesthesia and sedation” (The General Hospital Corporation, priority 2011, dated 2023).
Values joined by “and” are separate entries in the source; they are usually repeats but may differ in a detail not shown here. Equal values may be shown once. Read-outs that look alike come from different tables or passages of the source.

Experiments:
healthy volunteers [1] = test system: healthy volunteers
Description: (§1) These studies were approved by the Human Research Committee at the Massachusetts General Hospital. All subjects provided informed consent and were American Society of Anesthesiology Physical Status I with Mallampati Class I airway anatomy. […] We administered a urine pregnancy test for each female subject to confirm that they were not pregnant. Before the start of the study, we required subjects to take nothing by mouth for at least 8 hours. […] We maintained each target effect-site concentration level for 14 min. […] Volunteers were instructed to close their eyes throughout the study to avoid eye-blink artifacts in the electroencephalogram. Volunteers were presented with auditory stimuli during the study and asked to respond by button presses to assess the level of conscious behavior. […] Verbal stimuli consisted either of the subject's name or a word randomized with an equal number of name or word stimuli at each level. The click train was delivered binaurally, with 40-Hz clicks in the left ear and 84-Hz clicks in the right ear. Subjects were instructed to press one button if they heard their name and to press the other button if they heard any other stimulus. Stimuli were recorded at a sampling rate of 44.1 kHz and were presented using Presentation software (Neurobehavioral Systems, Inc., Berkeley, Calif.) with ear-insert headphones (ER2; Etymotic Research, Elk Grove Village, Ill.) at ˜81 decibels peak sound pressure level. Button-press stimuli were recorded using a custom-built computer mouse with straps fitted to hold the first and second fingers in place over the mouse buttons. The mouse was also lightly strapped to the subject's hand using tape and an arterial line board to ensure that responses could be recorded accurately.
(§2) An anti-aliasing filter was applied and the EEG data was downsampled to 250 Hz before analysis. EEG signals were re-montaged to a nearest-neighbor Laplacian reference, using distances along the scalp surface to weigh neighboring electrode contributions.
(§3) First, 2-minute EEG segments were selected from all subjects during the awake, eyes closed baseline. Eye closure facilitates distinguishing between normal awake, eyes-closed occipital alpha oscillations and the frontal alpha oscillations associated with anesthesia induced altered arousal.
(§4) Electroencephalogram data segments were selected based on the behavioral response.
(§5) For each volunteer subject, TM electroencephalogram epochs were chosen that occurred within the first 2-minutes of the onset of this pattern. […] For each volunteer subject, PM electroencephalogram epochs were chosen that occurred within the first 2-minutes of the onset of this pattern.
The power spectral density, also referred to as the power spectrum or spectrum, quantifies the frequency distribution of energy or power within a signal. The spectrogram is a time-varying version of the spectrum. […] In these spectrograms, frequencies are arranged along the y-axis, and time along the x-axis, and power is indicated by color on a decibel (dB) scale. […] Spectra and spectrograms were computed using the multitaper method, implemented in the Chronux toolbox.
Group-level spectrograms were computed by taking the median across volunteers.

healthy volunteers [2] = test system: healthy volunteers; remark: listed apart in the source
Description: as §1, §2, §3, §4, §5
The coherence quantifies the degree of correlation between two signals at a given frequency. […] The coherence Cxy(f) function between two signals x and y is defined as:
[formula] where Sxy(f) is the cross-spectrum between the signals x(t) and y(t), Sxx(f) is the power spectrum of the signal x(t) and Syy(f) is the power spectrum of the signal y(t). Similar to the spectrum and spectrogram, the coherence can be estimated as a time-varying quantity called the coherogram.

healthy volunteers [3] = test system: healthy volunteers; remark: listed apart in the source
Description: as §1, §4, §5

[4] = test system: patients undergoing light sedation with dexmedetomidine, sedation with propofol and general anesthesia with propofol; settings: intraoperative frontal EEG
[5] = Plethysmography and blood gas experiments; settings: in vivo
Source text: For example, in accordance with one aspect of the present disclosure, methylphenidate (MPH) can be used as an inhibitor of dopamine and norepinephrine reuptake transporters and actively induces emergence from isoflurane general anesthesia. MPH can be used to restore consciousness, induce electroencephalogram changes consistent with arousal, and increase respiratory drive. The behavioral and respiratory effects induced by methylphenidate can be inhibited by droperidol, supporting the evidence that methylphenidate induces arousal by activating a dopaminergic arousal pathway.

[6] = test system: patients undergoing general anesthesia; assay: Intra-operative EEG during general anesthesia with sevoflurane as primary maintenance agent; format: in vivo, human
Description: In addition, to study the relationship between EEG dynamics in context of potential neural circuit mechanisms of an anesthetic vapor, intra-operative EEG were recorded from patients undergoing general anesthesia with sevoflurane as the primary maintenance agent, which is an ether derivative commonly used to maintain GA. […] Connectivity analysis was then performed on the EEG dynamics postulated to be involved in anesthesia-induce depression in consciousness. […] These observed similarities are consistent with present understanding of how EEG features relate to anesthesia-induced depression of consciousness, and provide a framework for further experimental studies on the neural circuit mechanisms of general anesthesia.

[7] = dexmedetomidine-induced unconsciousness
[8] = propofol-induced unconsciousness (PM)
[9] = propofol-induced unconsciousness (TM)
[10] = Propofol-induced unconsciousness (PM) epoch
[11] = Propofol-induced unconsciousness (TM) epoch

Compound: Cc1cccc([C@H](C)c2cnc[nH]2)c1C [dexmedetomidine]
- slow oscillation power (healthy volunteers [1]; [7]): −0.4 dB
- frequency range where EEG power was larger than propofol-induced unconsciousness (TM) (healthy volunteers [1]; dexmedetomidine-induced unconsciousness vs propofol TM, P<0.0005, TGTS): 0.7-10 Hz
- frequency range of increased power in spectrogram compared to baseline (healthy volunteers [1]; dexmedetomidine-induced unconsciousness, FIGS. 9A, 9B): 2-15 Hz
- frequency range where EEG power was lower than baseline (healthy volunteers [1]; dexmedetomidine-induced unconsciousness, beta/gamma, P<0.001, TGTS): 21.2-40 Hz
- dex-spindle oscillation peak frequency (EEG power) (healthy volunteers [1]; dexmedetomidine-induced unconsciousness, mean±std): 12.9 Hz and ~13 Hz
- coherence peak frequency (dex-spindle) (healthy volunteers [2]; [7]): 13.4 Hz and ~13 Hz
- peak coherence (dex-spindle) (healthy volunteers [2]; [7]): 0.78±0.08
- slow oscillation coherence compared to the awake-state (healthy volunteers [2]; [7]): non-significant decrease
- frequency range where coherence was significantly larger than propofol-induced unconsciousness (PM) (healthy volunteers [2]; dexmedetomidine-induced unconsciousness vs propofol PM, FIG. 15B, P<0.0005, TGTC): 12.9-15.4 Hz
- frequency range of decrease in coherence on coherogram (healthy volunteers [2]; dexmedetomidine-induced unconsciousness, FIG. 12B): 0.1-1 Hz
- frequency range of significant differences in coherence vs baseline (healthy volunteers [2]; dexmedetomidine-induced unconsciousness, FIG. 12C, P<0.001, TGTC): 2.4-18.8 Hz
- frequency range of increase in coherence on coherogram (healthy volunteers [2]; dexmedetomidine-induced unconsciousness, FIGS. 12A, 12B): 1-15 Hz
- Behavioral State (healthy volunteers [3]; Dexmedetomidine-induced unconsciousness epoch): Sedation
- coherence of 0.1-1 Hz slow oscillations compared to propofol slow oscillations [4]: greater coherence
- coherence of 8-12 Hz oscillations compared to propofol induced oscillations [4]: less coherence

Compound: COC(=O)C(c1ccccc1)C1CCCCN1 (stereo not drawn) [methylphenidate]
- minute ventilation [5]: increases minute ventilation

Compound: CC(C)c1cccc(C(C)C)c1O [propofol]
- propofol effect site concentrations over which the signature is stably maintained (healthy volunteers [1]; PM pattern): 3 to 5 µg/mL
- frequency range where PM oscillations were significantly larger than TM (healthy volunteers [1]; propofol PM vs TM, FIG. 10F, P<0.0003, TGTS): 0.1-13.4 Hz
- alpha oscillation peak frequency (EEG power) (healthy volunteers [1]; [8]): 10.8 Hz
- frontal alpha oscillation peak power (healthy volunteers [1]; [8]): 1.1 dB
- slow oscillation power (healthy volunteers [1]; [8]): 13.2 dB
- amplitude of slow oscillations, PM relative to TM and the baseline state (healthy volunteers [1]; propofol-induced unconsciousness (PM) vs (TM)): approximately 6 fold
- amplitude of alpha oscillations, propofol PM relative to dexmedetomidine spindle oscillations (healthy volunteers [1]; propofol-induced unconsciousness (PM) vs dexmedetomidine): approximately 3.9 fold
- frequency range where EEG power was significantly larger than dexmedetomidine-induced unconsciousness (healthy volunteers [1]; propofol-induced unconsciousness (PM) vs dexmedetomidine, P<0.0005, TGTS): 0.1-40 Hz
- frequency range where EEG power was significantly larger than baseline (healthy volunteers [1]; propofol-induced unconsciousness (PM), FIG. 10E, P<0.0003, TGTS): 0.1-40 Hz
- broad-band frequency range of increased power in spectrogram (healthy volunteers [1]; [9]): 1-25 Hz
- slow oscillation power (healthy volunteers [1]; [9]): −2.5 dB
- frequency range where EEG power was larger than dexmedetomidine-induced unconsciousness (healthy volunteers [1]; propofol-induced unconsciousness (TM) vs dexmedetomidine, P<0.0005, TGTS): 14.9-40 Hz
- propofol effect site concentrations over which the signature is stably maintained (healthy volunteers [1]; trough max (TM) pattern): 1 to 2 µg/mL
- time after loss of consciousness to which the trough-max pattern extends (healthy volunteers [1]; trough-max pattern): ~10 min
- time before loss of consciousness at which the trough-max pattern begins (healthy volunteers [1]; trough-max pattern): ~20 min
- alpha oscillation coherence peak frequency (healthy volunteers [2]; [8]): 10.8 Hz
- alpha oscillation peak coherence (healthy volunteers [2]; [8]): 0.89±0.05
- slow oscillation coherence compared to baseline (healthy volunteers [2]; [8]): non-significant decrease
- frequency range of decrease in coherence on coherogram (healthy volunteers [2]; propofol-induced unconsciousness (PM), FIG. 13C): 0.1-1 Hz
- frequency range of significant increase in coherence vs baseline (healthy volunteers [2]; propofol-induced unconsciousness (PM), FIG. 13E, P<0.0003, TGTC): 3.9-15.1 Hz
- alpha oscillation coherence peak frequency (healthy volunteers [2]; propofol-induced unconsciousness (PM), listed as Propofol): ~10 Hz
- broad frequency range of increase in coherence on coherogram (healthy volunteers [2]; [9]): 1-25 Hz
- frequency range where coherence was larger than dexmedetomidine-induced unconsciousness (healthy volunteers [2]; propofol-induced unconsciousness (TM) vs dexmedetomidine, FIG. 15A, P<0.0005, TGTC): 17.3-25.9 Hz
- frequency ranges where oscillations were coherent vs baseline (healthy volunteers [2]; propofol-induced unconsciousness (TM), FIG. 13D, P<0.0003, TGTC): 10.7-15.4 Hz and 17.3-25.9 Hz
- Behavioral State (healthy volunteers [3]; [10]): General
- Probability of Response to Verbal Stimuli (%) mean (±SD) (healthy volunteers [3]; [10]): 0%
- Behavioral State (healthy volunteers [3]; [11]): Sedation
- Probability of Response to Verbal Stimuli (%) mean (±SD) (healthy volunteers [3]; [11]): 91.5 (15.4) %

Compound: FCOC(C(F)(F)F)C(F)(F)F [sevoflurane]
- macroscopic EEG dynamics during GA induced unconsciousness [6]: closely resemble those of propofol
